Measured values as given in PubChem BioAssay (NCI).
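Briefly, cells in 96-well plates were exposed to five compound concentrations for 48 h, and endpoints were estimated by linear interpolation. GI50 marks 50% less growth. Definition used: TGI = concentration required for complete inhibition of growth.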

Experiments:
Experiment in all cases: inhibition of tumour cell growth, NCI panel, 48 h
HS 578T breast = tested on: HS 578T breast
A549 NSCLC = tested on: A549 NSCLC
MDA-MB-435 = tested on: MDA-MB-435
NCI-H460 lung = tested on: NCI-H460 lung
K-562 leukemia = tested on: K-562 leukemia
SF-268 CNS = tested on: SF-268 CNS
OVCAR-8 ovarian = tested on: OVCAR-8 ovarian
SN12C renal = tested on: SN12C renal
SF-539 CNS = tested on: SF-539 CNS
SNB-19 CNS = tested on: SNB-19 CNS
MALME-3M melanoma = tested on: MALME-3M melanoma
UO-31 renal = tested on: UO-31 renal
M14 melanoma = tested on: M14 melanoma
U251 CNS = tested on: U251 CNS
ACHN renal = tested on: ACHN renal
KM12 colon = tested on: KM12 colon
BT-549 breast = tested on: BT-549 breast
MDA-MB-231 breast = tested on: MDA-MB-231 breast
DU-145 prostate = tested on: DU-145 prostate
HCT-116 colon = tested on: HCT-116 colon
OVCAR-5 ovarian = tested on: OVCAR-5 ovarian
TK-10 renal = tested on: TK-10 renal
EKVX NSCLC = tested on: EKVX NSCLC
T-47D breast = tested on: T-47D breast
HCC-2998 colon = tested on: HCC-2998 colon
RXF 393 renal = tested on: RXF 393 renal
UACC-257 melanoma = tested on: UACC-257 melanoma
HOP-62 NSCLC = tested on: HOP-62 NSCLC
HT29 colon = tested on: HT29 colon

`O=c1oc2ccc(Cl)cc2c(=O)n1-c1ccc(F)cc1F` showed a GI50 (HS 578T breast) of 1.55 µM, a TGI (HS 578T breast) of 7.66 µM and a GI50 (A549 NSCLC) of 2.08 µM. The TGI (A549 NSCLC) was greater than 100 µM, the GI50 (MDA-MB-435) was 1.64 µM and the TGI (MDA-MB-435) was 7.73 µM. For the same molecule, the GI50 (NCI-H460 lung) was 2.2 µM, the TGI (NCI-H460 lung) was 11.5 µM and the GI50 (K-562 leukemia) was 2.03 µM. It also gave a TGI (K-562 leukemia) greater than 100 µM, a GI50 (SF-268 CNS) of 2.21 µM and a TGI (SF-268 CNS) of 15.8 µM. It also gave a GI50 (OVCAR-8 ovarian) of 2.66 µM, a TGI (OVCAR-8 ovarian) greater than 100 µM and a GI50 (SN12C renal) of 1.67 µM. The TGI (SN12C renal) was 8.78 µM, the GI50 (SF-539 CNS) was 1.68 µM and the TGI (SF-539 CNS) was 8.67 µM. It also gave a GI50 (SNB-19 CNS) of 2.27 µM, a TGI (SNB-19 CNS) greater than 100 µM and a GI50 (MALME-3M melanoma) of 1.11 µM. For the same molecule, the TGI (MALME-3M melanoma) was 5.38 µM, the GI50 (UO-31 renal) was 1.22 µM and the TGI (UO-31 renal) was 7.97 µM. It also gave a GI50 (M14 melanoma) of 0.558 µM, a TGI (M14 melanoma) of 5.03 µM and a GI50 (U251 CNS) of 1.87 µM. For the same molecule, the TGI (U251 CNS) was 36.7 µM, the GI50 (ACHN renal) was 2.14 µM and the TGI (ACHN renal) was 6.08 µM. It also gave a GI50 (KM12 colon) of 2.72 µM, a TGI (KM12 colon) of 10.2 µM and a GI50 (BT-549 breast) of 1.09 µM. It also gave a TGI (BT-549 breast) of 5.89 µM, a GI50 (MDA-MB-231 breast) of 2.06 µM and a TGI (MDA-MB-231 breast) of 8.2 µM. For the same molecule, the GI50 (DU-145 prostate) was 3.75 µM, the TGI (DU-145 prostate) was 46.6 µM and the GI50 (HCT-116 colon) was 2.53 µM. It also gave a TGI (HCT-116 colon) of 10.4 µM, a GI50 (OVCAR-5 ovarian) of 3.43 µM and a TGI (OVCAR-5 ovarian) of 97.5 µM. The GI50 (TK-10 renal) was 5.55 µM, the TGI (TK-10 renal) was 68.2 µM and the GI50 (EKVX NSCLC) was 1.98 µM. It also gave a TGI (EKVX NSCLC) of 8.04 µM, a GI50 (T-47D breast) of 1.08 µM and a TGI (T-47D breast) of 5.27 µM. It also gave a GI50 (HCC-2998 colon) of 2.89 µM, a TGI (HCC-2998 colon) of 8.72 µM and a GI50 (RXF 393 renal) of 1.76 µM. For the same molecule, the TGI (RXF 393 renal) was 5.72 µM, the GI50 (UACC-257 melanoma) was 0.45 µM and the TGI (UACC-257 melanoma) was 4.08 µM. It also gave a GI50 (HOP-62 NSCLC) of 1.49 µM, a TGI (HOP-62 NSCLC) of 4.84 µM and a GI50 (HT29 colon) of 3.52 µM.
